The text below walks through data of US20060052453A1, “Agent for treating Parkinson's disease comprising astrocyte function-improving agent as active ingredient” (priority 2000, published 2006).

Series [1] has as its system Experimental Model of Parkinson's Disease Induced by Administration of MPTP. Description: Experimental model of Parkinson's disease induced by administration of MPTP; striatal dopamine and DOPAC content by HPLC. The note with it: for DOPAC content / Dopamine content: average ± standard deviation. It counts as in vivo, mice. The procedure: Improvement Effect of the Compound of the Present Invention in Experimental Model of Parkinson's Disease Induced by Administration of MPTP Male C57BL/6 mice (body weight: 20 to 28 g) were divided into groups each having 6 to 12 animals. Without anesthetizing, MPTP (10 mg/kg; 1-methyl-4-phenyl-1,2,3,6-tetrahydropyridine hydrochloride) was intraperitoneally administered to the mice 4 times at intervals of 1 hour (Brain Res., 824: 224-231 (1999)). To the models thus prepared, Compound A of the present invention ((R)-2-propyloctanoic acid) was administered after 1, 6, 24 and 48 hours. Three days after the final administration, striata of the mice were collected. After weighing, the striata were immediately frozen and stored. Then, dopamine content and DOPAC (3,4-dihydroxypyenylacetate) content were measured by HPLC in a conventional manner and evaluated. […] Dunnett's multiple comparison test (both sides) was performed on the basis of the data of the group with the administration of MPTP alone. The values in Table 1 are shown by the average±the standard deviation.

The subject of another series is dogs. In words: Single intravenous dose toxicity in dogs. It counts as in vivo. The note with it: single dose of 100 mg/kg. The text has this:
It has been confirmed that the compounds of the present invention represented by formula (I) have such low toxicity as being sufficiently safe in using as drugs.

Where [2] appears, read: Compound A alone 30 mg/kg, no MPTP, male C57BL/6 mice, striatum.
[3] abbreviates: MPTP (10 mg/kg i.p. x4) + compound A 3 mg/kg at 1, 6, 24 and 48 hours, striatum 3 days after final administration.
[4] abbreviates: MPTP (10 mg/kg i.p. x4) + compound A 10 mg/kg at 1, 6, 24 and 48 hours, striatum 3 days after final administration.
Setting [5] is: MPTP (10 mg/kg i.p. x4) + compound A 30 mg/kg at 1, 6, 24 and 48 hours, striatum 3 days after final administration.

As for `CCCCCC[C@@H](CCC)C(=O)O` [Compound A, (R)-2-propyloctanoic acid], the DOPAC content worked out at 2.97 ± 0.49 µg/g in series [1] (setting [2]), 1.30 ± 0.31 µg/g in series [1] (setting [3]), 2.07 ± 0.77 µg/g in series [1] (setting [4]) and 2.26 ± 0.52 µg/g in series [1] (setting [5]). Moreover, the Dopamine content in series [1] (setting [2]) was 12.17 ± 1.41 µg/g; in series [1] (setting [3]) it was 4.13 ± 1.48 µg/g; in series [1] (setting [4]) it was 5.45 ± 2.00 µg/g; in series [1] (setting [5]), 6.75 ± 2.72 µg/g. In addition, the “Dopamine and DOPAC content compared with the group of MPTP alone” value in series [1] (MPTP + compound groups vs MPTP alone, Dunnett's multiple comparison test) is “significantly increased dopamine and DOPAC content depending on the dose”. Besides, in series [1] (compound alone in normal animals, data compared with control group), the “Adverse effect when used alone” value was “no adverse effect”. For the same compound, in the series on dogs, the Death entry is “no case of death was observed”.
